Experimental data reported in PubChem BioAssay AID1963845 (Molecular Pharmacology Branch, DTP, NCI, 2024).

Test system: 429239-143-T-J1-PDC complex spheroid viability
Assay: Anticancer human tumor 429239-143-T-J1-PDC patient-derived small cell lung carcinoma cell line growth inhibition [POLQ]
Conditions: for IC50: curve of first compound; for viability, T/C: stronger effect = lower value
Procedure, shortened: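 PDC + HUVEC + MSC complex spheroids; POLQ inhibitors ± partner drugs; top conc. at/near clinical Cmax, else 10 microM (SN-38 1 microM), half-log dilutions; 37 degrees C, 5% CO2.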

[1] = second compound 0.0316 µM, first compound 0.0316 µM
[2] = second compound 0.0316 µM, first compound 0.1 µM
[3] = second compound 0.0316 µM, first compound 0.316 µM
[4] = second compound 0.0316 µM, first compound 1 µM
[5] = second compound 0.0316 µM, first compound 3.16 µM
[6] = second compound 0.0316 µM, first compound 10 µM
[7] = second compound 0.1 µM, first compound 0.0316 µM
[8] = second compound 0.1 µM, first compound 0.1 µM
[9] = second compound 0.1 µM, first compound 0.316 µM
[10] = second compound 0.1 µM, first compound 1 µM
[11] = second compound 0.1 µM, first compound 3.16 µM
[12] = second compound 0.1 µM, first compound 10 µM
[13] = second compound 0.316 µM, first compound 0.0316 µM
[14] = second compound 0.316 µM, first compound 0.1 µM
[15] = second compound 0.316 µM, first compound 0.316 µM
[16] = second compound 0.316 µM, first compound 1 µM
[17] = second compound 0.316 µM, first compound 3.16 µM
[18] = second compound 0.316 µM, first compound 10 µM
[19] = second compound 1 µM, first compound 0.0316 µM
[20] = second compound 1 µM, first compound 0.1 µM
[21] = second compound 1 µM, first compound 0.316 µM
[22] = second compound 1 µM, first compound 1 µM
[23] = second compound 1 µM, first compound 3.16 µM
[24] = second compound 1 µM, first compound 10 µM
[25] = second compound 3.16 µM, first compound 0.0316 µM
[26] = second compound 3.16 µM, first compound 0.1 µM
[27] = second compound 3.16 µM, first compound 0.316 µM
[28] = second compound 3.16 µM, first compound 1 µM
[29] = second compound 3.16 µM, first compound 3.16 µM
[30] = second compound 3.16 µM, first compound 10 µM
[31] = second compound 10 µM, first compound 0.0316 µM
[32] = second compound 10 µM, first compound 0.1 µM
[33] = second compound 10 µM, first compound 0.316 µM
[34] = second compound 10 µM, first compound 1 µM
[35] = second compound 10 µM, first compound 3.16 µM
[36] = second compound 10 µM, first compound 10 µM
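Further: luminescence signal used as surrogate measure of viable cells; spheroids exposed to compounds for seven days before readout.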
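Wherever viability, T/C is given: 100% = DMSO vehicle control viability as luminescence relative to vehicle.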

Compound: CCc1cc2c(N3CCc4c(cc(Cn5ccnc5)cc4-c4cn(C)nc4C(F)(F)F)C3=O)cc(C)nc2c(OC)n1 + Cc1cccc(N(C)C(=O)C2C(O)CCN2c2nc(C)cc(C(F)(F)F)c2C#N)c1
- IC50 (second compound 0.0316 µM): > 10 µM
- IC50 (second compound 0.1 µM): > 10 µM
- IC50 (second compound 0.316 µM): 8.03 µM
- IC50 (second compound 1 µM): 8.37 µM
- IC50 (second compound 3.16 µM): > 10 µM
- IC50 (second compound 10 µM): 4.71 µM
- viability, T/C [1]: 110%
- viability, T/C [2]: 97.7%
- viability, T/C [3]: 95%
- viability, T/C [4]: 85.6%
- viability, T/C [5]: 72.7%
- viability, T/C [6]: 48.5%
- viability, T/C [7]: 104%
- viability, T/C [8]: 104%
- viability, T/C [9]: 87.6%
- viability, T/C [10]: 79%
- viability, T/C [11]: 74.5%
- viability, T/C [12]: 49.8%
- viability, T/C [13]: 104%
- viability, T/C [14]: 99.6%
- viability, T/C [15]: 92.3%
- viability, T/C [16]: 78.2%
- viability, T/C [17]: 78.8%
- viability, T/C [18]: 42.5%
- viability, T/C [19]: 108%
- viability, T/C [20]: 96.1%
- viability, T/C [21]: 91.8%
- viability, T/C [22]: 85%
- viability, T/C [23]: 74.3%
- viability, T/C [24]: 44.1%
- viability, T/C [25]: 105%
- viability, T/C [26]: 101%
- viability, T/C [27]: 91.6%
- viability, T/C [28]: 90.6%
- viability, T/C [29]: 77.5%
- viability, T/C [30]: 54.6%
- viability, T/C [31]: 108%
- viability, T/C [32]: 98.9%
- viability, T/C [33]: 85.3%
- viability, T/C [34]: 82.5%
- viability, T/C [35]: 63.3%
- viability, T/C [36]: 28.6%

Compound: COc1cc(C2c3cc4c(cc3C(OC3OC5COC(C)OC5C(O)C3O)C3COC(=O)C23)OCO4)cc(OC)c1O (stereo unspecified) + COC1C(OC(N)=O)C(O)C(Oc2ccc3c(O)c(NC(=O)c4ccc(O)c(CC=C(C)C)c4)c(=O)oc3c2C)OC1(C)C
- IC50 (second compound 0.0316 µM): 0.302 µM
- IC50 (second compound 0.1 µM): 0.249 µM
- IC50 (second compound 0.316 µM): 0.417 µM
- IC50 (second compound 1 µM): 0.325 µM
- IC50 (second compound 3.16 µM): 0.349 µM
- IC50 (second compound 10 µM): 0.274 µM
- viability, T/C [1]: 101%
- viability, T/C [2]: 81.2%
- viability, T/C [3]: 53%
- viability, T/C [4]: 15.8%
- viability, T/C [5]: 18.2%
- viability, T/C [6]: 16.6%
- viability, T/C [7]: 106%
- viability, T/C [8]: 72%
- viability, T/C [9]: 47.9%
- viability, T/C [10]: 22%
- viability, T/C [11]: 18.2%
- viability, T/C [12]: 18.1%
- viability, T/C [13]: 88.1%
- viability, T/C [14]: 85.3%
- viability, T/C [15]: 59.4%
- viability, T/C [16]: 20.4%
- viability, T/C [17]: 16.6%
- viability, T/C [18]: 16.1%
- viability, T/C [19]: 90.8%
- viability, T/C [20]: 75.5%
- viability, T/C [21]: 54%
- viability, T/C [22]: 18.6%
- viability, T/C [23]: 14%
- viability, T/C [24]: 17%
- viability, T/C [25]: 88.4%
- viability, T/C [26]: 88.9%
- viability, T/C [27]: 52.4%
- viability, T/C [28]: 20.3%
- viability, T/C [29]: 17%
- viability, T/C [30]: 13.7%
- viability, T/C [31]: 97.4%
- viability, T/C [32]: 79.1%
- viability, T/C [33]: 47.7%
- viability, T/C [34]: 18.9%
- viability, T/C [35]: 23%
- viability, T/C [36]: 14.2%

Compound: C#Cc1c(F)ccc2cc(O)cc(-c3ncc4c(N5CC6CCC(C5)N6)nc(OCC56CCCN5CC(F)C6)nc4c3F)c12 (stereo unspecified) + Nc1ccc(C#CCN(C(=O)Cc2ncc(C(F)(F)F)cc2C(F)(F)F)c2ccc(F)cc2)nn1
- IC50 (second compound 0.0316 µM): > 10 µM
- IC50 (second compound 0.1 µM): > 10 µM
- IC50 (second compound 0.316 µM): > 10 µM
- IC50 (second compound 1 µM): > 10 µM
- IC50 (second compound 3.16 µM): > 10 µM
- IC50 (second compound 10 µM): > 10 µM
- viability, T/C [1]: 98.6%
- viability, T/C [2]: 106%
- viability, T/C [3]: 103%
- viability, T/C [4]: 109%
- viability, T/C [5]: 102%
- viability, T/C [6]: 89.3%
- viability, T/C [7]: 103%
- viability, T/C [8]: 107%
- viability, T/C [9]: 102%
- viability, T/C [10]: 98.7%
- viability, T/C [11]: 101%
- viability, T/C [12]: 95%
- viability, T/C [13]: 106%
- viability, T/C [14]: 93%
- viability, T/C [15]: 102%
- viability, T/C [16]: 100%
- viability, T/C [17]: 99.9%
- viability, T/C [18]: 96.9%
- viability, T/C [19]: 102%
- viability, T/C [20]: 99.8%
- viability, T/C [21]: 105%
- viability, T/C [22]: 105%
- viability, T/C [23]: 99.7%
- viability, T/C [24]: 93.1%
- viability, T/C [25]: 99.4%
- viability, T/C [26]: 98%
- viability, T/C [27]: 106%
- viability, T/C [28]: 93.8%
- viability, T/C [29]: 103%
- viability, T/C [30]: 96.8%
- viability, T/C [31]: 93.9%
- viability, T/C [32]: 106%
- viability, T/C [33]: 97.4%
- viability, T/C [34]: 102%
- viability, T/C [35]: 101%
- viability, T/C [36]: 90.5%
